Laboratory results as given in patent publication US10544150B2, “NK-3 receptor selective antagonist compounds, pharmaceutical composition and methods for use in NK-3 receptors mediated disorders” (Ogeda SA, priority 2010, dated 2020).

Molecular target: human NK-3 receptor (Homo sapiens (Human), UniProt P29371)
Assay: 3H-SB222200 binding competition assay with human NK-3 receptor
Conditions: 3H-SB222200 displacement, CHO cell membranes expressing human NK3 receptor; read-out: Ki range
Procedure: The affinity of compounds of the invention for the tachykinin receptors was determined by measuring the ability of the compounds of the invention to displace a radiolabeled ligand from its specifics binding site.
^3H-SB222200 Binding Competition Assay with Human NK-3 Receptor
The ability of the compounds of the invention to inhibit the binding of the NK-3 receptor selective antagonist SB222200 was assessed by an in vitro radioligand binding assay. Membranes were prepared from Chinese hamster ovary recombinant cells which express the human NK3 receptor. The membranes were incubated with 5 nM ^3H-SB222200_(ARC) in a HEPES 25 mM/NaCl 0.1M/CaCl2 1 mM/MgCl2 5 Mm/BSA 0.5%/Saponin 10 μg/ml buffer at pH 7.4 and various concentrations of the compounds of the invention. The amount of tritiated SB222200 bound to the receptor was determined after filtration by the quantification of membrane associated radioactivity using the TopCount-NXT reader (Packard). […] In Table 3 biological results obtained using the ^3H-SB222200 binding competition assay with compounds of the invention are set out in tabulated form. In this table the calculated Ki is given. The Ki value obtained (in accordance with the protocol set forth above) is represented as follows: “+++” means Ki<500 nM; “++” means 500 nM≤Ki≤1 μM; “+” means 1 μM<Ki≤5 μM; “#” means Ki>5 μM.

Sequence of human NK-3 receptor (P29371 whole entry): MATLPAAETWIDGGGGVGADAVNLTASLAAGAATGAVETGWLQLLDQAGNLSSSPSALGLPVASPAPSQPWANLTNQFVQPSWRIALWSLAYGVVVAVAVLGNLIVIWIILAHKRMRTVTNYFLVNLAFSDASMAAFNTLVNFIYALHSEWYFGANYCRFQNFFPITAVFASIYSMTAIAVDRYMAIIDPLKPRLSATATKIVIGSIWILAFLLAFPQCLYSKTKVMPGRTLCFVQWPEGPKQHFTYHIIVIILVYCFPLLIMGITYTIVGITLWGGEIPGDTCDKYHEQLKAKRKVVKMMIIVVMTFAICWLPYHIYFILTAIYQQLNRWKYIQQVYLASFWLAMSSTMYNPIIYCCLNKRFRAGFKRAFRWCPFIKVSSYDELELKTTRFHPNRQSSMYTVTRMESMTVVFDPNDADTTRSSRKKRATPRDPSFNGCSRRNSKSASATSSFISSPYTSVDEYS

SMILES: CN(C)c1ccc(-c2nc(-c3nnc4n3CCN(C(=O)c3ccc(F)cc3)C4)cs2)cc1 [Compound 221, (3-(2-(4-(dimethylamino)phenyl)thiazol-4-yl)-5,6-dihydro-[1,2,4]triazolo[4,3-a]pyrazin-7(8H)-yl)(4-fluorophenyl)methanone]
- Ki: 500 to 1000 nM

SMILES: O=C(c1ccc(F)cc1)N1CCn2c(nnc2-c2coc(-c3ccccc3)n2)C1 [Compound 47, (4-fluorophenyl)(3-(2-phenyloxazol-4-yl)-5,6-dihydro-[1,2,4]triazolo[4,3-a]pyrazin-7(8H)-yl)methanone]
- Ki: < 500 nM

SMILES: C[C@H]1c2nnc(-c3csc(-c4ccc(F)cc4)n3)n2CCN1C(=O)c1ccc(F)cc1 [Compound 164, (S)-(4-fluorophenyl)(3-(2-(4-fluorophenyl)thiazol-4-yl)-8-methyl-5,6-dihydro-[1,2,4]triazolo[4,3-a]pyrazin-7(8H)-yl)methanone]
- Ki: < 500 nM

SMILES: C[C@@H]1c2nnc(-c3csc(-c4ccccc4)n3)n2CCN1C(=O)c1ccc(-c2cccs2)cc1 [Compound 135, (R)-(8-methyl-3-(2-phenylthiazol-4-yl)-5,6-dihydro-[1,2,4]triazolo[4,3-a]pyrazin-7(8H)-yl)(4-(thiophen-2-yl)phenyl)methanone]
- Ki: < 500 nM

SMILES: COc1ccccc1-c1nc(-c2nnc3n2CCN(C(=O)c2ccc(-c4ccccc4)cc2)C3)cs1 [Compound 203, [1,1′-biphenyl]-4-yl(3-(2-(2-methoxyphenyl)thiazol-4-yl)-5,6-dihydro-[1,2,4]triazolo[4,3-a]pyrazin-7(8H)-yl)methanone]
- Ki: 500 to 1000 nM

SMILES: C[C@@H]1c2nnc(-c3coc(-c4ccccc4)n3)n2CCN1C(=O)c1ccc(-c2ccccc2)cc1 [Compound 131, (R)-[1,1′-biphenyl]-4-yl(8-methyl-3-(2-phenyloxazol-4-yl)-5,6-dihydro-[1,2,4]triazolo[4,3-a]pyrazin-7(8H)-yl)methanone]
- Ki: < 500 nM

SMILES: O=C(c1ccc(F)cc1)N1CCn2c(nnc2-c2csc(-c3cccc(F)c3)n2)C1 [Compound 206, (4-fluorophenyl)(3-(2-(3-fluorophenyl)thiazol-4-yl)-5,6-dihydro-[1,2,4]triazolo[4,3-a]pyrazin-7(8H)-yl)methanone]
- Ki: 1000 to 5000 nM

SMILES: CC(C)CC(=O)N1CCn2c(nnc2-c2ccc3ccccc3n2)C1 [Compound 95, 3-methyl-1-(3-(quinolin-2-yl)-5,6-dihydro-[1,2,4]triazolo[4,3-a]pyrazin-7(8H)-yl)butan-1-one]
- Ki: 1000 to 5000 nM

SMILES: O=C(c1ccc(-c2cccs2)cc1)N1CCn2c(nnc2-c2csc(-c3ccccc3O)n2)C1 [Compound 262, (3-(2-(2-hydroxyphenyl)thiazol-4-yl)-5,6-dihydro-[1,2,4]triazolo[4,3-a]pyrazin-7(8H)-yl)(4-(thiophen-2-yl)phenyl)methanone]
- Ki: < 500 nM

SMILES: CC1c2nnc(-c3ccc4ccccc4n3)n2CCN1C(=O)c1ccc(F)cc1 (stereo not drawn) [Compound 61, (4-fluorophenyl)(8-methyl-3-(quinolin-2-yl)-5,6-dihydro-[1,2,4]triazolo[4,3-a]pyrazin-7(8H)-yl)methanone]
- Ki: < 500 nM

SMILES: Cn1cc(-c2nnc3n2CCN(C(=O)c2ccc(-c4cccs4)cc2)C3)nc1-c1ccccc1 [Compound 252, (3-(1-methyl-2-phenyl-1H-imidazol-4-yl)-5,6-dihydro-[1,2,4]triazolo[4,3-a]pyrazin-7(8H)-yl)(4-(thiophen-2-yl)phenyl)methanone]
- Ki: 500 to 1000 nM

SMILES: CC1c2nnc(-c3coc(-c4ccccc4)n3)n2CCN1C(=O)c1ccc(-c2ccccc2)cc1 (stereo not drawn) [Compound 49, [1,1′-biphenyl]-4-yl(8-methyl-3-(2-phenyloxazol-4-yl)-5,6-dihydro-[1,2,4]triazolo[4,3-a]pyrazin-7(8H)-yl)methanone]
- Ki: < 500 nM

SMILES: O=C(c1ccc(-c2ccc(F)cc2)cc1)N1CCn2c(nnc2-c2csc(-c3ccccc3F)n2)C1 [Compound 183, (4′-fluoro-[1,1′-biphenyl]-4-yl)(3-(2-(2-fluorophenyl)thiazol-4-yl)-5,6-dihydro-[1,2,4]triazolo[4,3-a]pyrazin-7(8H)-yl)methanone]
- Ki: < 500 nM

SMILES: O=C(c1ccc(F)cc1)N1CCn2c(nnc2-c2nc(-c3ccccc3)no2)C1 [Compound 172, (4-fluorophenyl)(3-(3-phenyl-1,2,4-oxadiazol-5-yl)-5,6-dihydro-[1,2,4]triazolo[4,3-a]pyrazin-7(8H)-yl)methanone]
- Ki: < 500 nM

SMILES: O=C(c1ccc(-c2cccs2)cc1)N1CCn2c(nnc2-c2nc(-c3ccc(F)cc3F)no2)C1 [Compound 177, (3-(3-(2,4-difluorophenyl)-1,2,4-oxadiazol-5-yl)-5,6-dihydro-[1,2,4]triazolo[4,3-a]pyrazin-7(8H)-yl)(4-(thiophen-2-yl)phenyl)methanone]
- Ki: < 500 nM

SMILES: O=C(c1ccc(Cl)c(Cl)c1)N1CCn2c(nnc2-c2ccccn2)C1 [Compound 5, (3,4-dichlorophenyl)(3-(pyridin-2-yl)-5,6-dihydro-[1,2,4]triazolo[4,3-a]pyrazin-7(8H)-yl)methanone]
- Ki: 1000 to 5000 nM

SMILES: O=C(c1ccc(-c2ccccc2)cc1)N1CCn2c(nnc2-c2coc(-c3ccccc3)n2)C1 [Compound 50, [1,1′-biphenyl]-4-yl(3-(2-phenyloxazol-4-yl)-5,6-dihydro-[1,2,4]triazolo[4,3-a]pyrazin-7(8H)-yl)methanone]
- Ki: < 500 nM

SMILES: O=C(c1ccc(-c2cccs2)cc1)N1CCn2c(nnc2-c2csc(-c3ccccc3)n2)C1 [Compound 54, (3-(2-phenylthiazol-4-yl)-5,6-dihydro-[1,2,4]triazolo[4,3-a]pyrazin-7(8H)-yl)(4-(thiophen-2-yl)phenyl)methanone]
- Ki: < 500 nM

SMILES: O=C(c1ccc(-c2cccs2)cc1)N1CCn2c(nnc2-c2csc(-c3ccccn3)n2)C1 [Compound 224, (3-(2-(pyridin-2-yl)thiazol-4-yl)-5,6-dihydro-[1,2,4]triazolo[4,3-a]pyrazin-7(8H)-yl)(4-(thiophen-2-yl)phenyl)methanone]
- Ki: < 500 nM

SMILES: CC1c2nnc(-c3csc(-c4ccc(F)cc4F)n3)n2CCN1C(=O)c1ccc(F)cc1 (stereo not drawn) [Compound 77, (3-(2-(2,4-difluorophenyl)thiazol-4-yl)-8-methyl-5,6-dihydro-[1,2,4]triazolo[4,3-a]pyrazin-7(8H)-yl)(4-fluorophenyl)methanone]
- Ki: < 500 nM

SMILES: O=C(c1ccc(F)cc1)N1CCn2c(nnc2-c2cccc(N3CCCC3)n2)C1 [Compound 37, (4-fluorophenyl)(3-(6-(pyrrolidin-1-yl)pyridin-2-yl)-5,6-dihydro-[1,2,4]triazolo[4,3-a]pyrazin-7(8H)-yl)methanone]
- Ki: < 500 nM

SMILES: Cc1cccc(-c2nnc3n2CCN(C(=O)c2ccc(-c4ccccc4)cc2)C3C)n1 (stereo not drawn) [Compound 286, [1,1′-biphenyl]-4-yl(8-methyl-3-(6-methylpyridin-2-yl)-5,6-dihydro-[1,2,4]triazolo[4,3-a]pyrazin-7(8H)-yl)methanone]
- Ki: < 500 nM

SMILES: O=C(c1ccc(-c2cccs2)cc1)N1CCn2c(nnc2-c2csc(-c3ccc(N4CCCC4)cc3)n2)C1 [Compound 245, (3-(2-(4-(pyrrolidin-1-yl)phenyl)thiazol-4-yl)-5,6-dihydro-[1,2,4]triazolo[4,3-a]pyrazin-7(8H)-yl)(4-(thiophen-2-yl)phenyl)methanone]
- Ki: < 500 nM

SMILES: O=C(c1ccc(F)cc1)N1CCn2c(nnc2-c2cccc(-c3ccccc3)n2)C1 [Compound 25, (4-fluorophenyl)(3-(6-phenylpyridin-2-yl)-5,6-dihydro-[1,2,4]triazolo[4,3-a]pyrazin-7(8H)-yl)methanone]
- Ki: < 500 nM

SMILES: C[C@H]1c2nnc(-c3ccccn3)n2CCN1C(=O)c1ccc(F)cc1 [Compound 159, (S)-(4-fluorophenyl)(8-methyl-3-(pyridin-2-yl)-5,6-dihydro-[1,2,4]triazolo[4,3-a]pyrazin-7(8H)-yl)methanone]
- Ki: > 5000 nM

SMILES: O=C(c1ccc(F)cc1)N1CCn2c(nnc2-c2ccc3ccccc3n2)C1 [Compound 7, (4-fluorophenyl)(3-(quinolin-2-yl)-5,6-dihydro-[1,2,4]triazolo[4,3-a]pyrazin-7(8H)-yl)methanone]
- Ki: < 500 nM

SMILES: Cc1sccc1-c1ccc(C(=O)N2CCn3c(-c4csc(-c5ccc(F)cc5)n4)nnc3[C@H]2C)cc1 [Compound 234, (R)-(3-(2-(4-fluorophenyl)thiazol-4-yl)-8-methyl-5,6-dihydro-[1,2,4]triazolo[4,3-a]pyrazin-7(8H)-yl)(4-(2-methylthiophen-3-yl)phenyl)methanone]
- Ki: < 500 nM

SMILES: O=C(c1ccc(-c2ccc(F)cc2)cc1)N1CCn2c(nnc2-c2csc(CS(=O)(=O)c3ccc(Cl)cc3)n2)C1 [Compound 200, (3-(2-(((4-chlorophenyl)sulfonyl)methyl)thiazol-4-yl)-5,6-dihydro-[1,2,4]triazolo[4,3-a]pyrazin-7(8H)-yl)(4′-fluoro-[1,1′-biphenyl]-4-yl)methanone]
- Ki: 500 to 1000 nM

SMILES: CC1c2nnc(-c3csc(-c4ccc(F)cc4)n3)n2CCN1C(=O)c1ccc(F)cc1 (stereo not drawn) [Compound 70, (4-fluorophenyl)(3-(2-(4-fluorophenyl)thiazol-4-yl)-8-methyl-5,6-dihydro-[1,2,4]triazolo[4,3-a]pyrazin-7(8H)-yl)methanone]
- Ki: < 500 nM

SMILES: O=C(c1ccc(-c2cccs2)cc1)N1CCn2c(nnc2-c2csc(-c3cccc(F)c3)n2)C1 [Compound 207, (3-(2-(3-fluorophenyl)thiazol-4-yl)-5,6-dihydro-[1,2,4]triazolo[4,3-a]pyrazin-7(8H)-yl)(4-(thiophen-2-yl)phenyl)methanone]
- Ki: < 500 nM
